Results reported in paper PMC9822769, “The Strange Case: The Unsymmetric Cisplatin-Based Pt(IV) Prodrug [Pt(CH3COO)Cl2(NH3)2(OH)] Exhibits Higher Cytotoxic Activity with respect to Its Symmetric Congeners due to Carrier-Mediated Cellular Uptake” (Bioinorganic Chemistry and Applications, 2022).

Assays:
HCT 116 = assay: Resazurin reduction cell viability assay, HCT 116; assay type: cell-based, human; conditions: 72 h of treatment; mean ± sd
Description: (§1) The compounds under investigation were tested on a panel of commercial human cancer cell lines: ovarian endometrioid adenocarcinoma A2780 (ICLC HTL98008), its cisplatin-resistant variant A2780cisR (ECACC 93112517), colon carcinoma HCT 116 (ECACC 91091005), breast invasive ductal carcinoma MCF7 (ECACC 86012803), embryonal carcinoma NTERA-2 clone D1 (also known as NT2/D1, ICLC HTL97025), and lung adenocarcinoma A549 (ICLC HTL03001). Furthermore, a cell line derived from the pleural effusion of a patient with untreated malignant pleural mesothelioma (MPM) was added to the panel, namely, MM98 (sarcomatoid phenotype). Commercial cells were purchased from the European Collection of Authenticated Cell Cultures (ECACC, UK) or the Interlab Cell Line Collection (ICLC, Genoa, Italy), while the MM98 cell line was obtained from the Pathology Unit of the National Hospital of Alessandria (Italy).
(§2) The following media were used to grow the cells: RPMI 1640 (for A2780, A2780cisR, NT2/D1, and A549 cells), DMEM (for MCF7 cells), DMEM supplemented with nonessential amino acids (for MM98 cells), and McCoy's 5A (for HCT 116 cells). All media contained L-glutamine (2 mM) and were added with penicillin (100 IU·mL^−1), streptomycin (100 mg·L^−1), and 10% heat inactivated FBS. To maintain resistance in A2780cisR cells, cisplatin (1 μM) was added to the medium every two passages.
(§3) Continuous treatments (CT) were carried out at 37°C in a humidified chamber with 5% CO2. Cisplatin was dissolved in a 0.9% w/v NaCl aqueous solution and brought to pH = 3 with HCl (final stock concentration 1 mM). The Pt(IV) Complexes 1–3 were dissolved in milliQ water (final stock concentration 5 mM) and stored at −20°C. The stock concentration was confirmed with inductively coupled plasma-mass spectrometry (ICP-MS) measurements. The mother solutions were diluted in a complete medium to the required concentration.
(§4) To assess the growth inhibition of the compounds under investigation, a cell viability test (i.e., the resazurin reduction assay) was used. […] At the end of the treatment (72 h), viability was evaluated with 100 μg·mL^−1 resazurin (Acros Chemicals, France) in a fresh medium for 1 h at 37°C, and the amount of the reduced product, resorufin, was measured by fluorescence (excitation λ = 535 nm, emission λ = 595 nm) with a Tecan Infinite F200Pro plate reader (Tecan, Austria). In each experiment, cells were challenged with drug candidates at different concentrations, and the final data were calculated from at least three replicates of the same experiment performed in triplicate. The fluorescence of 8 wells containing a medium without cells was used as a blank. Fluorescence data were normalized to 100% cell viability for nontreated cells. […]

A549 = assay: Resazurin reduction cell viability assay, A549; assay type: cell-based, human; conditions: 72 h of treatment; mean ± sd
Description: as §1, §2, §3, §4

MCF-7 = assay: Resazurin reduction cell viability assay, MCF-7; assay type: cell-based, human; conditions: 72 h of treatment; mean ± sd
Description: as §1, §2, §3, §4

[1] = RP-HPLC lipophilicity (log k′) on C18 column; assay type: physicochemical; conditions: 30% methanol/70% aqueous 15 mM formic acid
Description: Retention times, tR, were measured on two columns: (i) a standard C18 column (Phenomenex Phenosphere-NEXT, 250 × 4.6 mm, 5 μm) and (ii) an IAM.PC.DD.2 column (Regis, 10 cm × […], 10 μm packing 300 Å pore size), prepared by covalently bonding cell-membrane-forming phospholipids to silica. On (i), a chromatogram was performed for each complex (0.25 mM) in a fixed eluent composition (30% methanol/70% aqueous 15 mM formic acid; flow rate 0.5 mL·min^−1) using a Waters HPLC-MS instrument (equipped with an Alliance 2695 separation module, a 2487 dual lambda absorbance detector, and a 3100 mass detector). The UV-vis detector was set at 210 nm. In (ii), the mobile phase consisted of 20 mM ammonium acetate buffer at pH 6.9 and acetonitrile flowing at 1 mL·min^−1. The samples were dissolved in the mobile phase in a concentration range of 50–100 μg·mL^−1. An HPLC Varian ProStar instrument equipped with a 410 autosampler, a PDA 335 LC detector, and Galaxie Chromatography Data System Version 1.9.302.952 was used.
The different tRs were used to calculate log k′, which is the logarithm of the retention factor k′ = (tR − t0)/t0, where t0 is the column dead time (i.e., the tR of KCl or citric acid used as the internal reference for (i) and (ii), respectively).
The lipophilicity of a compound is commonly described by the octanol-water partition coefficient, log Po/w, which can be defined as the ratio of the concentration of the compound between the organic (n-octanol) and the aqueous phase. However, other faster methods, such as RP-HPLC, have often been used to evaluate lipophilicity instead of the shake-flask method. […] Therefore, the retention times (tR) of the complexes were determined on a C18 column using a 70/30 (% v/v) water/MeOH mixture as an eluent, and the data were expressed as log k′ (k′ = (tR − t0)/t0, where t0 is the column dead time of the column). The trend of the measured log k' was 3 > 2 > cisplatin > 1, as expected based on the structure of the complexes, the acetato ligand being more lipophilic than the hydroxido one (Table 1).

[2] = Stability in cell culture medium (HPLC-MS); assay type: physicochemical; conditions: 72 h, 37°C, dark, RPMI 1640 + 10% FBS, 100 μM
Description: The stability in the solution of Complexes 1–3 (100 μM) was studied by aging the compounds for 72 h at 37°C in the dark in the same cell culture medium employed for the A2780 cell line (i.e., RPMI 1640 medium added with 10% fetal bovine serum, FBS). The area of the chromatographic peaks of the Pt complexes was monitored in HPLC-MS, using a 70 : 30 mixture of 15 mM aqueous HCOOH and CH3OH as the mobile phase (see Section 2.3, settings i), for further instrumental details). ESI mass spectra, recorded using cone and capillary voltages of +30 V (positive ion mode) and 2.70 kV, were used to confirm the identity of the species.

[3] = parameters: method as in PMID 32296997; conditions: vs. Ag/AgCl, 3M KCl, glassy carbon electrode, scan rate 0.2 V·s^−1; cited from earlier work
[4] = parameters: method as in PMID 32296997; conditions: 37°C, ten-fold excess of ascorbic acid; cited from earlier work

Row | SMILES | IC50 (HCT 116) [µM] | IC50 (A549) [µM] | IC50 (MCF-7) [µM] | Log k′ [1] | remaining intact, % of the original HPLC peak [2] [%] | E p (reduction peak potential) [3] [V] | t ½ [4] [min] | partial hydrolysis [2]
1 | N.N.[Cl][Pt][Cl] [Cisplatin, (SP-4-2)-diamminedichloridoplatinum(II)] | 2.3 ± 0.3 | 3.8 ± 0.7 | 6.46 ± 0.91 | – | – | – | – | –
2 | N.N.[OH][Pt]([OH])([Cl])[Cl] [Complex 1, (OC-6-33)-diamminedichloridodihydroxidoplatinum(IV)] | 22.9 ± 3.89 | 48.2 ± 27.7 | 78.1 ± 5.6 | −1.50 | > 95 | −0.815 | 8.6 | –
3 | CC(=O)[O][Pt]([OH])([Cl])[Cl].N.N [Complex 2, (OC-6-44)-acetatodiamminedichloridohydroxidoplatinum(IV)] | 1.46 ± 0.02 | 3.11 ± 0.74 | 8.86 ± 3.45 | −1.10 | – | −0.618 | 20.5 | approximately 40%
4 | CC(=O)[O][Pt]([NH2])([NH2])([Cl])([Cl])[O]C(C)=O [Complex 3, (OC-6-33)-diamminedichloridodiacetatoplatinum(IV)] | 55.3 ± 1.69 | 78 ± 17.7 | > 100 | −0.84 | > 85 | −0.486 | 528 | –
